Test results as given in ChEMBL document CHEMBL1201862, “PubChem BioAssay data set” (2004).
Calls of active or inactive are those of the source.

How the values were obtained:
[1] = system: HeLa; test: ATP-based viability loss in HeLa cells – cell-based, CellTiter-Glo luminescence, cherry-pick samples, cytotoxicity control for MITF activator project, dose response (AID 540259); assay type: functional; details: Homo sapiens
[2] = biological target: T1, Aminopeptidase N (Plasmodium falciparum FcB1/Columbia, UniProt O96935); test: malaria alanyl aminopeptidase activity blockers – biochemical, fluorogenic H-Leu-NHMec substrate, 1536-well (AID 1445); parameters: species or system Plasmodium falciparum 3D7, 3D7
T1 sequence (O96935 whole entry): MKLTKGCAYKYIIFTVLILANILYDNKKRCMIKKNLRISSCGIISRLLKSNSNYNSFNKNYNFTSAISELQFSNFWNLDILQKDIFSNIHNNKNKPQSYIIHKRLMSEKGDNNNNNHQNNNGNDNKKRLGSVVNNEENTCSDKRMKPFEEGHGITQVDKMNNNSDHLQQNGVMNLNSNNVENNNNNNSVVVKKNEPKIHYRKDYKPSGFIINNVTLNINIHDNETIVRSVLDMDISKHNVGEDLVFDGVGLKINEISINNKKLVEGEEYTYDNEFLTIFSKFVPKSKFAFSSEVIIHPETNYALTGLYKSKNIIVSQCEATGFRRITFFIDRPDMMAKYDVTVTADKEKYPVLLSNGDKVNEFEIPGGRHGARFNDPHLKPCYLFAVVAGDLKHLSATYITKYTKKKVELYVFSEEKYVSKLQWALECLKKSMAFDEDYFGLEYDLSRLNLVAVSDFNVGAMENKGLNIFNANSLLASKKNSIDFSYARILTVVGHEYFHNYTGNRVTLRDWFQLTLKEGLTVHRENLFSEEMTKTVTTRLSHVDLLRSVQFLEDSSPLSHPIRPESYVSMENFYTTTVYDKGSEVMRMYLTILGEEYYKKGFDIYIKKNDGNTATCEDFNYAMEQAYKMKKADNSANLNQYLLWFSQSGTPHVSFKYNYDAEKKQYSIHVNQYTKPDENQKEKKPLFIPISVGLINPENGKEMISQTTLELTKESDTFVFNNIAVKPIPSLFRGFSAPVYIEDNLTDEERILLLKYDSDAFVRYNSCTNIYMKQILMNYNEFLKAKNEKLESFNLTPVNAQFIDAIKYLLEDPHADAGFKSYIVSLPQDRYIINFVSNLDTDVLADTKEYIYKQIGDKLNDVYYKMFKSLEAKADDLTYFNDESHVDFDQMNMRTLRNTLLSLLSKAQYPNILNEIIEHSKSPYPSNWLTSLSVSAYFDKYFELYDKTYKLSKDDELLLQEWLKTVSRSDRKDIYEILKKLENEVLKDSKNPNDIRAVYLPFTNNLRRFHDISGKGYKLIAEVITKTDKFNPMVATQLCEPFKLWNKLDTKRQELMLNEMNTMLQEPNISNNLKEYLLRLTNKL

[3] = growth inhibition of yeast DHODH-expressing 3D7 parasites – SYBR Green, dry powder samples, dose response (AID 1159570); assay type: functional, cell-based;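 further: parasite growth measured after 72 hours of compound exposure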
[4] = P. falciparum Dd2 growth inhibitors, dose response, SYBR Green, cherry-picked samples (AID 1159567); assay type: functional, cell-based
[5] = Dd2 malaria parasite growth inhibition potency – SYBR Green, dry powder samples, dose response (AID 1159566); assay type: functional, cell-based;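 further: potency for growth inhibition with lower SYBR green DNA signal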
[6] = growth inhibition of PfATP4-mutant resistant parasites – NITD609-resistant line, SYBR Green, dry powder, dose response (AID 1159571); assay type: functional, cell-based;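 further: parasites synchronized at ring stage by sorbitol before testing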
[7] = Trypanosoma cruzi growth suppression in host cells – NIH3T3 host cells, beta-gal luminescence, confirmation (AID 2044); assay type: functional, cell-based;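 further: intracellular parasites grown in NIH/3T3 mouse fibroblasts as host cells; luminescent beta-galactosidase reporter signal from transgenic T. cruzi replicating inside host cells; inhibitors lower the luminescence signal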
[8] = NIH3T3 cell viability loss – ATP luminescence, mouse fibroblasts, counter-screen, dose response (AID 2010); assay type: functional, cell-based;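 further: cells exposed to compound for about 90 hours before reading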
[9] = biological target: T2, Cytochrome P450 1A2 (Homo sapiens, UniProt P05177);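 further: PubChem cytochrome P450 panel assay, CYP1A2 panel member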
T2 sequence (P05177 whole entry): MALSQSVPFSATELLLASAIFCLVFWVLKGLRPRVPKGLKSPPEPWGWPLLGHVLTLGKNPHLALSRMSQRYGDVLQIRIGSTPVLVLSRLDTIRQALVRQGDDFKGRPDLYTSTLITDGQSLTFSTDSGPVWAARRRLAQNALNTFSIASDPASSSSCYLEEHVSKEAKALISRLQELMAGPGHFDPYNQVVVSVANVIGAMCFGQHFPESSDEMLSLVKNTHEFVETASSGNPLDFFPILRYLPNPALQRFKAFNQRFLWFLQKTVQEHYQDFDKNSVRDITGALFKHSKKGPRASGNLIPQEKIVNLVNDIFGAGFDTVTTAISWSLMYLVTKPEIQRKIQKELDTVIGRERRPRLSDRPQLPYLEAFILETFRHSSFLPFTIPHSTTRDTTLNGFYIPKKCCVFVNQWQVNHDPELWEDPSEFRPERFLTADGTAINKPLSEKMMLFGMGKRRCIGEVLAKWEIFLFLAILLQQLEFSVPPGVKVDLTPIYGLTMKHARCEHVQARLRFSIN

[10] = biological target: Cytochrome P450 2C9 (Homo sapiens, UniProt P11712)
[11] = biological target: DNA dC->dU-editing enzyme APOBEC-3A (Homo sapiens, UniProt P31941); test: Dose Response confirmation of small molecule APOBEC3A DNA Deaminase Inhibitors via a fluorescence-based single-stranded DNA deaminase assay. [Related pubchem assays (depositor defined):AID493011, AID493024]; assay type: functional
[12] = biological target: DNA dC->dU-editing enzyme APOBEC-3G (Homo sapiens, UniProt Q9HC16); assay type: functional;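 further: Dose-response counterscreen measuring inhibition of APOBEC3G DNA deaminase activity, run while confirming APOBEC3A inhibitors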
[13] = system: Streptococcus sp. 'group A'; test: Streptococcus pyogenes SK(-)GAS viability under kanamycin – luminescence, BacTiterGlo, confirmation, counter-screen for streptokinase expression inhibitor project, dose response (AID 1900); assay type: functional, organism-based
[14] = cells; assay type: functional, cell-based
[15] = cells; assay type: functional, cell-based; remark: listed apart in the source
[16] = system: Streptococcus; test: GAS UMAA2166 growth inhibition – luminescence, BacTiterGlo, counter-screen for streptokinase expression inhibitor project, dose response (AID 1915); assay type: functional, organism-based;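 further: potency for reduction of bacterial viability or growth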
[17] = biological target: Nonstructural protein 1 (Influenza A virus, UniProt Q194T2); assay type: functional, Influenza A virus (A/California/07/2009(H1N1))
[18] = biological target: T3, Microphthalmia-associated transcription factor (Homo sapiens, UniProt O75030); test: reducers of TRPM1 reporter luminescence, concentration series – cell-based, SK-MEL-5, cherry-picked, set 3, MITF inhibitor project, dose response (AID 493073); assay type: functional;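 further: SK-MEL-5 melanoma cells with luciferase driven by the MITF target TRPM1 promoter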
T3 sequence (O75030 whole entry): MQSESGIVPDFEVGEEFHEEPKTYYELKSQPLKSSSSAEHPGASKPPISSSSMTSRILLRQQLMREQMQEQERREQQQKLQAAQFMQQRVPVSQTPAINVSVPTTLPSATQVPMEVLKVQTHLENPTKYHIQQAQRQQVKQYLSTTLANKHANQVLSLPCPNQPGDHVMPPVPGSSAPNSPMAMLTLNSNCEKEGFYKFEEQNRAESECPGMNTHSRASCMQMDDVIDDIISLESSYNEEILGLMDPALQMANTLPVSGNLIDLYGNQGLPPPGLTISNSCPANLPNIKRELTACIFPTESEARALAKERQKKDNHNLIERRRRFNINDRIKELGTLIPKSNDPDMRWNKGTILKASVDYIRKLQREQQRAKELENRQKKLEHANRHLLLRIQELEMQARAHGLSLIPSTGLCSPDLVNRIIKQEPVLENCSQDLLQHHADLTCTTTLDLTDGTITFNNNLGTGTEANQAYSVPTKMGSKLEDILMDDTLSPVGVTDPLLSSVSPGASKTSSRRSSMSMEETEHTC

DNA dC->dU-editing enzyme APOBEC-3G, sequence (Q9HC16 whole entry): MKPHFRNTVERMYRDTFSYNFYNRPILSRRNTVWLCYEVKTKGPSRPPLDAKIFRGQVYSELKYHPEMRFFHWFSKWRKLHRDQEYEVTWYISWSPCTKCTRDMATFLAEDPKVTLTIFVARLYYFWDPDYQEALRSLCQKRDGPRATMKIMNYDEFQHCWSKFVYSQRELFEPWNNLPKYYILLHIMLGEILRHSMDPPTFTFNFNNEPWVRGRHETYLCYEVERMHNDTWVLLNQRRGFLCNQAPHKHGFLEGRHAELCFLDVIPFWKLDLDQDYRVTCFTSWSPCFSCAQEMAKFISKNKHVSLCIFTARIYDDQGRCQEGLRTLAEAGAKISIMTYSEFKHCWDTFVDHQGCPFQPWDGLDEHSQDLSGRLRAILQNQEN
DNA dC->dU-editing enzyme APOBEC-3A, sequence (P31941 whole entry): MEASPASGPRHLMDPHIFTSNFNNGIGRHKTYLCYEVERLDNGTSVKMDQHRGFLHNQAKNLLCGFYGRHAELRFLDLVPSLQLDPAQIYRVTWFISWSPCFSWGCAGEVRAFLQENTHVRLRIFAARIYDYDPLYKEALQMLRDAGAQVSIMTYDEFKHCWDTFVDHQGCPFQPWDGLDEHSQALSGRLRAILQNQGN
Cytochrome P450 2C9, sequence (P11712 whole entry): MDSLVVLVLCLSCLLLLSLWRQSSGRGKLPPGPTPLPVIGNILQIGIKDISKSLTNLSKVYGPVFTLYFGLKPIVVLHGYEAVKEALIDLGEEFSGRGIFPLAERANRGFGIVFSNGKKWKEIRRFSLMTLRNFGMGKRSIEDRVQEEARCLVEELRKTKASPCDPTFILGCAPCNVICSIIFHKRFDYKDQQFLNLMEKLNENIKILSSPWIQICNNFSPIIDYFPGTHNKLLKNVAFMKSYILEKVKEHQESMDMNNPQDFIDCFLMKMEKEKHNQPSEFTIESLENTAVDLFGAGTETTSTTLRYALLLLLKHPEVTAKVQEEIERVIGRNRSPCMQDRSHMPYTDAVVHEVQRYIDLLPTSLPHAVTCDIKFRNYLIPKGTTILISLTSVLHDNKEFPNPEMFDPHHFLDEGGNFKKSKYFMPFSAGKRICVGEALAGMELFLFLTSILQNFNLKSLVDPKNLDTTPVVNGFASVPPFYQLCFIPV
Nonstructural protein 1, sequence (Q194T2 whole entry): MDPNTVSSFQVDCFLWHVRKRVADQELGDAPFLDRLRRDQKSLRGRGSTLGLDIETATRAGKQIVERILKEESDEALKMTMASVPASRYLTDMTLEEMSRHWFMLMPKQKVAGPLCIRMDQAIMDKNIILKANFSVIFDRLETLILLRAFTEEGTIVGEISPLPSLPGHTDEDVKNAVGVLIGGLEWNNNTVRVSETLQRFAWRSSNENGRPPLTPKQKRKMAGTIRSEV

## CS(=O)(=O)N1CCc2cc(C(=O)Nc3ccccc3Br)ccc21
[1]
  AC50: > 350 µM (inactive)

## CCN(N=O)c1ccc(C=C2C=Cc3ccccc32)cc1
[1]
  AC50: 68.9 µM (active)

## Cc1ccc(NC(=O)C(C)N2C(=O)c3ccccc3C2=O)cc1S(=O)(=O)N1CCOCC1 (centres undefined)
[2]
  IC50: 115 µM (active)

## COc1ccc(NC(=O)N2CCCCN3[C@H](CO)[C@H](c4ccc(C#Cc5ccccn5)cc4)[C@@H]3C2)cc1
[3]
  AC50: 0.109 µM (active)
[4]
  AC50: 0.301 µM (active)
[5]
  AC50: 0.131 µM (active)
[6]
  AC50: 0.109 µM (active)

## Clc1ccc(-c2ccc(SCc3ccccn3)nn2)cc1
[1]
  AC50: 50.7 µM (active)

## O=C(Nc1ncc(Cc2cc(Cl)ccc2Cl)s1)c1ccc([N+](=O)[O-])cc1
[7]
  EC50: 1.31 µM (active)
[8]
  EC50: > 30 µM (not active)
[9]
  AC50: 5.62 µM (inconclusive)
[10]
  AC50: inconclusive

## CN1CCN(S(=O)(=O)c2cccc(C(=O)N(C)CC(=O)Nc3ccc(F)c(F)c3F)c2)CC1
[11]
  IC50: 3.94 µM (active)
[12]
  IC50: 5.4 µM (active)

## O=C(N/N=C/c1cc(Br)ccc1O)c1ccncc1
[2]
  IC50: 7.95 µM (active)
[13]
  EC50: 3 µM (active)
[14]
  EC50: 17.7 µM (active)
[15]
  EC50: > 350 µM (not active)
[16]
  EC50: 3.78 µM (active)
[17]
  IC50: 5.51 µM (active)
[18]
  AC50: 9.36 µM (active)

## Cc1ccc2oc(Nc3nc(C)c(C)c(C)n3)nc2c1
[1]
  AC50: 192 µM (active)

## CSc1nnc(-c2ccncc2)n1CCCN1CCCC1=O
[11]
  IC50: 2.76 µM (active)
[12]
  IC50: 3.35 µM (active)
